Measurements as given in ChEMBL document CHEMBL1201862, “PubChem BioAssay data set” (2004).
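Cultured in 96-well plates, cells were exposed to test compound for 48 hours across five concentrations. GI50: concentration for 50% inhibition of growth.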 Calls of active or inactive are those of the source. Rule as the data show it: active = GI50 up to about 1.1 µM and inactive = higher.

Key:
Experiment in all cases: DTP human tumour cell line panel, 48 h
[1] = test system: SF-539
[2] = test system: SK-MEL-2
[3] = test system: A498
[4] = test system: SF-268
[5] = test system: HL-60
[6] = test system: HCT-116
[7] = test system: SW-620
[8] = test system: HCT-15
[9] = test system: CAKI-1
[10] = test system: COLO 205
[11] = test system: HT-29
[12] = test system: NCI-H226
[13] = test system: HOP-62
[14] = test system: SR
[15] = test system: NCI-H460
[16] = test system: T47D
[17] = test system: Hs-578T
[18] = test system: DU-145
[19] = test system: PC-3

Compound	GI50 [1]	GI50 [2]	GI50 [3]	GI50 [4]	GI50 [5]	GI50 [6]	GI50 [7]	GI50 [8]	GI50 [9]	GI50 [10]	GI50 [11]	GI50 [12]	GI50 [13]	GI50 [14]	GI50 [15]	GI50 [16]	GI50 [17]	GI50 [18]	GI50 [19]
Cc1ccccc1C(=O)c1c(O)c2c(c(O)c1Br)CCCC2	18.5 µM (inactive)	16.7 µM (inactive)	22.1 µM (inactive)	15 µM (inactive)	5.07 µM (inactive)	16.6 µM (inactive)	18.7 µM (inactive)	16.7 µM	20.1 µM (inactive)	18.9 µM (inactive)	27.9 µM (inactive)	25.4 µM (inactive)	37.2 µM (inactive)	16.2 µM (inactive)	22 µM (inactive)				
N#C/N=C(/N)NCO	> 100 µM (inactive)	> 100 µM (inactive)	> 100 µM (inactive)	63.5 µM (inactive)	> 100 µM (inactive)	> 46 µM (inactive)	> 37.8 µM (inactive)	> 40 µM	> 100 µM (inactive)	> 42.1 µM (inactive)	> 64.1 µM (inactive)	> 100 µM (inactive)	> 100 µM (inactive)	9.29 µM (inactive)	> 78 µM (inactive)				
CCOC(=O)NC(=O)c1cn(CCSCCOC(=O)NCCCCCCNC(=O)OCCSCCn2cc(C(=O)NC(=O)OCC)c(=O)n(C)c2=O)c(=O)n(C)c1=O	25.9 µM (inactive)	34.2 µM (inactive)		24 µM (inactive)	15.3 µM (inactive)	19.2 µM (inactive)	29.8 µM (inactive)	86.3 µM		56.2 µM (inactive)	52.5 µM (inactive)	21.1 µM (inactive)	51.5 µM (inactive)	13.4 µM (inactive)	29.9 µM (inactive)				
O=c1nc(-c2ccccc2)scc1-c1ccccc1	> 100 µM (inactive)	> 100 µM (inactive)		86.3 µM (inactive)	> 100 µM (inactive)	> 100 µM (inactive)	> 100 µM (inactive)	> 100 µM	> 100 µM (inactive)	> 100 µM (inactive)	> 100 µM (inactive)	> 100 µM (inactive)	44.7 µM (inactive)	> 100 µM (inactive)	> 100 µM (inactive)				
O=C1NCC2(CCNCC2)N1	> 100 µM (inactive)		> 100 µM (inactive)	> 100 µM (inactive)	> 100 µM (inactive)	> 100 µM (inactive)	> 100 µM (inactive)	> 100 µM		> 100 µM (inactive)	> 100 µM (inactive)	> 100 µM (inactive)	> 100 µM (inactive)	> 100 µM (inactive)	> 100 µM (inactive)	> 100 µM (inactive)	> 100 µM (inactive)	> 100 µM (inactive)	
O=C(O)COc1ccccc1C(=O)Nc1ccccc1	> 100 µM (inactive)	> 100 µM (inactive)		> 100 µM (inactive)	> 100 µM (inactive)	> 100 µM (inactive)	> 100 µM (inactive)	> 100 µM	> 100 µM (inactive)	> 100 µM (inactive)	> 100 µM (inactive)	> 100 µM (inactive)	> 100 µM (inactive)	> 100 µM (inactive)	> 100 µM (inactive)				
CS/C(=N\C(=S)N(C)C)N(c1ccccc1)c1nc(N(C)C)s[s+]1	7.67 µM (inactive)	5.52 µM (inactive)	1.9 µM (inactive)	12.1 µM (inactive)	1.61 µM (inactive)	10 µM (inactive)	4.05 µM (inactive)	19.8 µM	29 µM (inactive)	2 µM (inactive)	2.67 µM (inactive)		19.5 µM (inactive)	3.98 µM (inactive)	2.91 µM (inactive)				
CCOC(=O)C1=C(Nc2ccc(Cl)cc2Cl)OC/C1=N\NS(=O)(=O)c1ccc(C)cc1	> 100 µM (inactive)	> 100 µM (inactive)	> 100 µM (inactive)	> 100 µM (inactive)	> 100 µM (inactive)	> 100 µM (inactive)	> 100 µM (inactive)	> 100 µM	> 100 µM (inactive)	> 100 µM (inactive)	> 100 µM (inactive)	> 100 µM (inactive)	> 100 µM (inactive)	> 100 µM (inactive)	> 100 µM (inactive)				
CCOC(=O)C1=C(C)N(NC(N)=O)C(C)(O)C12CCOC2=O (configuration not stated)	> 100 µM (inactive)	> 100 µM (inactive)	> 100 µM (inactive)	> 100 µM (inactive)	> 100 µM (inactive)	> 100 µM (inactive)	> 100 µM (inactive)	> 100 µM	> 100 µM (inactive)		> 100 µM (inactive)	> 100 µM (inactive)	> 100 µM (inactive)	> 100 µM (inactive)	> 100 µM (inactive)				
COC(=O)/C(=C\C(=O)c1ccc(Br)cc1)NN=C(c1ccccc1)c1ccccc1				> 10 µM (inactive)	> 10 µM (inactive)		> 10 µM (inactive)	> 10 µM	> 10 µM (inactive)	> 10 µM (inactive)	> 10 µM (inactive)		> 10 µM (inactive)	> 10 µM (inactive)		> 10 µM (inactive)		> 10 µM (inactive)	> 10 µM (inactive)
OCC(O)C(O)C(O)C(/C=N\Nc1ncnc2ccc(Br)cc12)=N/Nc1ncnc2ccc(Br)cc12 (configuration not stated)	8.3 µM (inactive)	3.33 µM (inactive)	50.5 µM (inactive)	0.423 µM (active)	3.15 µM (inactive)	3.09 µM (inactive)	6.62 µM (inactive)		4.55 µM (inactive)	3.31 µM (inactive)	4.44 µM (inactive)	5.58 µM (inactive)	7.16 µM (inactive)	3.17 µM (inactive)		3.2 µM (inactive)	> 100 µM (inactive)	5.65 µM (inactive)	19 µM (inactive)
O=C(CC(=O)n1nc(-c2ccccc2)c(/N=N/c2ccc(Cl)cc2)c1-c1ccccc1)Nc1ccc(Cl)cc1	> 100 µM (inactive)	> 100 µM (inactive)	> 100 µM (inactive)	> 88.7 µM (inactive)	> 100 µM (inactive)	> 39.9 µM (inactive)	> 44.1 µM (inactive)	> 41.7 µM	> 100 µM (inactive)	> 46.9 µM (inactive)	> 43.3 µM (inactive)	> 100 µM (inactive)	> 100 µM (inactive)	> 100 µM (inactive)	> 43.4 µM (inactive)				
CC1=C[C@@H]2Cc3occc3C(C)(C)[C@@H]2CC1	23.8 µM (inactive)	10.9 µM (inactive)	21.8 µM (inactive)	20.2 µM (inactive)	19.3 µM (inactive)	19.4 µM (inactive)	17.1 µM (inactive)		23.4 µM (inactive)	18.9 µM (inactive)	16.6 µM (inactive)	17.9 µM (inactive)	32.4 µM (inactive)	14.5 µM (inactive)					
Cc1cc(Cl)cc2c1NC(=O)C2(O)C(C)C(=O)c1ccc(Cl)cc1 (configuration not stated)	> 62.1 µM (inactive)	> 100 µM (inactive)	> 57.7 µM (inactive)	> 71.9 µM (inactive)	3.15 µM (inactive)	> 74.1 µM (inactive)	> 74.8 µM (inactive)	> 89.1 µM	> 92.5 µM (inactive)	97.1 µM (inactive)	> 83.2 µM (inactive)	> 60.1 µM (inactive)	> 100 µM (inactive)	> 66.2 µM (inactive)	> 100 µM (inactive)				
